According to ChEMBL document CHEMBL1150911, “New ceramide from marine sponge Haliclona koremella and related compounds as antifouling substances against macroalgae” (J Nat Prod, 1998):
Calls of active or inactive are those of the source. The calls are words filed in the database; no cut-off is given here.

How the values were obtained:
Ulva [1] = test: Toxicity against Ulva conglobata at 50 ppm; assay type: organism-based; conditions: in vivo
[2] = tested on: Anagnostidinema amphibium; test: Antimicrobial activity against Oscillatoria amphibia at 5 ppm; assay type: functional, organism-based
Brachiomonas submarina [3] = test: Antimicrobial activity against […] at 1 ppm; assay type: functional, organism-based
Prorocentrum micans = test: Antimicrobial activity against Prorocentrum micans at 5 ppm; assay type: functional, organism-based
Brachiomonas submarina [4] = test: Antimicrobial activity against […] at 5 ppm; assay type: functional, organism-based
[5] = tested on: Anagnostidinema amphibium; test: Antimicrobial activity against Oscillatoria amphibia at 1 ppm; assay type: functional, organism-based
Ulva [6] = test: Antifouling activity against Ulva conglobata spores assessed as germination and attachment rate at 5 ppm; assay type: functional
Skeletonema costatum = test: Antimicrobial activity against Skeletonema costatum at 5 ppm; assay type: functional, organism-based
Ulva [7] = test: Antifouling activity against Ulva conglobata spores assessed as germination and attachment rate at 1 ppm; assay type: functional

## CCCCCCCCCCCCC/C=C/[C@@H](O)[C@H](CO)NC(=O)CCCCCCCCCCCCCCC
Ulva [1]
  Activity: Non-toxic

## CCCCCCCCCCCCCCC[C@@H](O)[C@@H](N)CO
[2]
  Activity: Active
Brachiomonas submarina [3]
  Activity: Active
Prorocentrum micans
  Activity: Active
Brachiomonas submarina [4]
  Activity: Active
[5]
  Activity: Active

## CCCCCCCCCCCCC/C=C/[C@@H](O)[C@H](CO)NC(C)=O
Ulva [1]
  Activity: Non-toxic

## CCCCCCCCCCCCC/C=C/[C@@H](O)[C@H](CO)N(C)C
[2]
  Activity: Active
Ulva [6]
  Activity: Active
Skeletonema costatum
  Activity: Active
Prorocentrum micans
  Activity: Active
Brachiomonas submarina [4]
  Activity: Active

## CCCCCCCCCCCCCCCCCCCCCC(=O)N[C@@H](CO)[C@H](O)/C=C/CCCCCCCCCCC(C)C
Ulva [1]
  Activity: Non-toxic

## CCCCCCCCCCCCC/C=C/[C@@H](O)[C@@H](N)CO [SPHINGOSINE]
[2]
  Activity: Active
Ulva [6]
  Activity: 0%
Skeletonema costatum
  Activity: Active
Prorocentrum micans
  Activity: Active
Brachiomonas submarina [4]
  Activity: Active
Ulva [7]
  Activity: 15%

## CCCCCCCCCCCCC/C=C/[C@@H](O)[C@H](CO)NC(=O)CCCCCCC
Ulva [1]
  Activity: Non-toxic

## CCCCCCCCCCCCC/C=C/[C@@H](O)[C@H](CO)NC(=O)CCCCC
Ulva [1]
  Activity: Non-toxic
